Measurements as given in the NIST ThermoML archive (doi:10.1016/j.jct.2018.10.012).
± gives the expanded uncertainty stated by the source.

Details: Liquid; for viscosity / mass density: 101.33 kPa; for viscosity: Capillary tube (Ostwald / Ubbelohde) method; for mass density: Pycnometric method; for vapor or sublimation pressure: Ebulliometric method (Recirculating still)

CCCCCCCCCCCCCCCC(=O)OCC(CC)CCCC (stereo unspecified) [2-ethylhexyl palmitate]
Details	mass density [kg/m3]	vapor or sublimation pressure [kPa]	viscosity [mPa·s]
298.15 K	855.1 ± 0.9	–	11.78 ± 0.48
303.15 K	851 ± 0.9	–	10.01 ± 0.41
308.15 K	847.9 ± 0.9	–	8.28 ± 0.34
313.15 K	844.5 ± 0.9	–	7.16 ± 0.29
318.15 K	840.9 ± 0.9	–	6.26 ± 0.25
323.15 K	837.4 ± 0.9	–	5.64 ± 0.23
328.15 K	834 ± 0.9	–	4.94 ± 0.2
333.15 K	830.3 ± 0.9	–	4.41 ± 0.18
338.15 K	826.7 ± 0.9	–	3.94 ± 0.16
343.15 K	823.3 ± 0.9	–	3.55 ± 0.14
348.15 K	820.1 ± 0.9	–	3.24 ± 0.13
353.15 K	816.8 ± 0.9	–	2.94 ± 0.12
358.15 K	813.2 ± 0.9	–	2.71 ± 0.11
363.15 K	810 ± 0.9	–	2.49 ± 0.1
368.15 K	806.9 ± 0.9	–	2.29 ± 0.09
476.95 K	–	0.307 ± 0.029	–
479.35 K	–	0.333 ± 0.029	–
482.35 K	–	0.387 ± 0.029	–
484.95 K	–	0.427 ± 0.029	–
488.05 K	–	0.493 ± 0.029	–
490.35 K	–	0.547 ± 0.029	–
491.45 K	–	0.573 ± 0.029	–
493.85 K	–	0.627 ± 0.029	–
496.05 K	–	0.68 ± 0.029	–
497.35 K	–	0.733 ± 0.029	–
499.35 K	–	0.8 ± 0.029	–
500.85 K	–	0.853 ± 0.029	–

CCCCCCCCCCCCCCCCCC(=O)OCC(CC)CCCC (stereo unspecified) [2-ethylhexyl stearate]
Details	mass density [kg/m3]	vapor or sublimation pressure [kPa]	viscosity [mPa·s]
298.15 K	855.4 ± 0.9	–	15.04 ± 0.61
303.15 K	851.4 ± 0.9	–	12.55 ± 0.51
308.15 K	847.9 ± 0.9	–	10.62 ± 0.43
313.15 K	844.9 ± 0.9	–	9.06 ± 0.37
318.15 K	841.1 ± 0.9	–	7.84 ± 0.32
323.15 K	837.7 ± 0.9	–	6.81 ± 0.28
328.15 K	834.4 ± 0.9	–	6.04 ± 0.25
333.15 K	831.1 ± 0.9	–	5.34 ± 0.22
338.15 K	827.8 ± 0.9	–	4.79 ± 0.19
343.15 K	824.5 ± 0.9	–	4.36 ± 0.18
348.15 K	821.1 ± 0.9	–	3.92 ± 0.16
353.15 K	817.2 ± 0.9	–	3.58 ± 0.15
358.15 K	814.2 ± 0.9	–	3.27 ± 0.13
363.15 K	811.2 ± 0.9	–	3.02 ± 0.12
368.15 K	808 ± 0.9	–	2.8 ± 0.11
477.05 K	–	0.213 ± 0.029	–
479.65 K	–	0.253 ± 0.029	–
482.25 K	–	0.28 ± 0.029	–
483.45 K	–	0.307 ± 0.029	–
485.25 K	–	0.333 ± 0.029	–
487.55 K	–	0.373 ± 0.029	–
488.85 K	–	0.4 ± 0.029	–
491.25 K	–	0.44 ± 0.029	–
493.25 K	–	0.493 ± 0.029	–
495.25 K	–	0.547 ± 0.029	–
496.25 K	–	0.573 ± 0.029	–
498.05 K	–	0.613 ± 0.029	–

CCCCCCCCCCCCCCCC(=O)OC [methyl hexadecanoate]
Details	vapor or sublimation pressure [kPa]
419.15 K	0.213 ± 0.029
423.15 K	0.279 ± 0.029
425.25 K	0.306 ± 0.029
428.35 K	0.346 ± 0.029
430.75 K	0.399 ± 0.029
432.25 K	0.425 ± 0.029
433.35 K	0.452 ± 0.029
436.25 K	0.532 ± 0.029
438.45 K	0.585 ± 0.029
440.15 K	0.624 ± 0.029
442.35 K	0.705 ± 0.029
444.15 K	0.771 ± 0.029
